Source: patent US12370187B2, “Composition containing antitumor drug, and preparation method thereof and use thereof” (KUNSHAN XINYUNDA BIOTECH CO., LTD., priority 2021, dated 2025)
Structures can show the parent of a compound that is named as a salt. Where two headings read alike, the source gives them in different places.

Experiments:
[1] = system: human triple-negative breast cancer MDA-MB-231; assay: Anti-breast tumor activity, subcutaneously implanted MDA-MB-231 (Example 22); type: in vivo, BALB/c nude mice; details: Protocol I; 60 mg/kg iv
[2] = system: human colon cancer HT-29; assay: Anti-colon cancer activity, subcutaneously implanted HT-29 (Example 23); type: in vivo, BALB/c nude mice; details: Protocol I; 60 mg/kg iv
[3] = system: human ovarian cancer cell line SKOV-3; details: for RTV / Tumor Weight: D 42
From the text: SKOV-3 tumor masses were subcutaneously inoculated to 80 BALB/c nude mice.

[4] = system: human colon cancer cell line HCT116; details: for RTV / Tumor Weight: D 43
From the text: One week after the last dose, tumors were taken from all mice, weighed, and photographed.

[5] = system: human colon cancer cell line SW620; details: for RTV (D 41) / T/C (%) RTV / T/C (%) TW / Tumor Weight (mg) (D 41): D 41
[6] = system: human triple-negative breast cancer cell line MDA-MB-231; assay: In vivo pharmacodynamic study on MDA-MB-231 tumor (Example 24); details: for Body weight increase compared with before administration: mouse, in vivo
Protocol: One week after the last administration, tumors were taken from all the mice and weighed.
The clinical symptoms observed during the experiment were recorded in the raw data. Tumor volume was calculated by the following formula: […]
Relative tumor proliferation rate (T/C (%)) represents a ratio in percentage of relative tumor volumes or tumor weights of a treatment group and a control group at a time point, which was calculated by the following formula: […]
Relative tumor inhibition rate (TGI (%)) was calculated by the following formula: […]

[7] = system: human colon cancer cell line SW620; assay: In vivo pharmacodynamic study in SW620 model (Example 34); details: 60 mg/kg iv QW × 4
[8] = system: tumor cells; details: Zhang et al. 2004; cited from earlier work
[9] = CPT-11 80 mg/kg iv QW × 4, 2 surviving animals

CCc1c2c(nc3ccc(OC(=O)N4CCC(N5CCCCC5)CC4)cc13)-c1cc3c(c(=O)n1C2)COC(=O)[C@]3(O)CC [CPT-11, irinotecan hydrochloride]
Tumor Inhibition Rate [1]: 71%
Tumor Inhibition Rate [2]: 47%
T/C (%) RTV ([3]; CPT-11 60 mg/kg iv QW × 4): 64%
T/C (%) TW ([3]; CPT-11 60 mg/kg iv QW × 4): 67%
RTV ([3]; CPT-11 60 mg/kg iv QW × 4): 9.20 ± 0.79
Tumor Weight ([3]; CPT-11 60 mg/kg iv QW × 4): 1179 ± 150 mg
T/C (%) RTV ([3]; CPT-11 80 mg/kg iv QW × 4): 79%
T/C (%) TW ([3]; CPT-11 80 mg/kg iv QW × 4): 95%
RTV [3, 9]: 11.44 ± 0.21
Tumor Weight [3, 9]: 1664 ± 258 mg
Animals died ([3]; CPT-11 80 mg/kg, 8 animals): 6
Body weight increase at the end of the experiment ([3]; CPT-11 high dose (80 mg/kg), two living animals): 11.94%
Body weight increase at the end of the experiment ([3]; CPT-11 low dose (60 mg/kg)): 6.97%
Reduction in body weight at the end of the experiment compared to before administration ([4]; CPT-11 60 mg/kg): 14.41%
T/C (%) RTV ([4]; CPT-11 60 mg/kg iv QW × 4): 35%
T/C (%) TW ([4]; CPT-11 60 mg/kg iv QW × 4): 26%
RTV ([4]; CPT-11 60 mg/kg iv QW × 4): 4.42 ± 1.05
Tumor Weight ([4]; CPT-11 60 mg/kg iv QW × 4): 370 ± 87 mg
Reduction in body weight at the end of the experiment compared to before administration ([4]; CPT-11 80 mg/kg): 16.00%
T/C (%) RTV ([4]; CPT-11 80 mg/kg iv QW × 4): 16%
T/C (%) TW ([4]; CPT-11 80 mg/kg iv QW × 4): 12%
RTV ([4]; CPT-11 80 mg/kg iv QW × 4): 1.95 ± 0.31
Tumor Weight ([4]; CPT-11 80 mg/kg iv QW × 4): 173 ± 34 mg
RTV (D 41) ([5]; 60 mg/kg): 4.69 ± 1.12
T/C (%) RTV ([5]; 60 mg/kg): 28%
T/C (%) TW ([5]; 60 mg/kg): 27%
Tumor Weight (mg) (D 41) ([5]; 60 mg/kg): 465 ± 91 mg
RTV (D 41) ([5]; 80 mg/kg): 5.95 ± 1.22
T/C (%) RTV ([5]; 80 mg/kg): 36%
T/C (%) TW ([5]; 80 mg/kg): 28%
Tumor Weight (mg) (D 41) ([5]; 80 mg/kg): 495 ± 91 mg
Body weight reduction at the end of the experiment compared with before administration ([5]; CPT-11 high dose (80 mg/kg)): 5.810%
Body weight reduction at the end of the experiment compared with before administration ([5]; CPT-11 low dose (60 mg/kg)): 0.99%
Animal death ([6]; CPT-11 60 mg/kg): No animal died
T/C (%) RTV ([6]; CPT-11 60 mg/kg iv QW × 3): 24%
T/C (%) TW ([6]; CPT-11 60 mg/kg iv QW × 3): 28%
RTV ([6]; CPT-11 60 mg/kg iv QW × 3, D33): 4.59 ± 1.04
T/C (%) RTV ([6]; CPT-11 80 mg/kg iv QW × 3): 13%
T/C (%) TW ([6]; CPT-11 80 mg/kg iv QW × 3): 16%
RTV ([6]; CPT-11 80 mg/kg iv QW × 3, D33): 2.46 ± 0.41
Tumor Weight ([6]; CPT-11 80 mg/kg iv QW × 3, D33): 391 ± 143 mg
Animal death ([6]; CPT-11 80 mg/kg, 7 animals): one animal died
Body weight increase compared with before administration ([6]; 60 mg/kg): 2.41%
Body weight increase compared with before administration ([6]; 80 mg/kg): 1.950%
T/C (%) TV [7]: 8%
T/C (%) TW [7]: 7%
TW (mg) (mean ± SEM) [7]: 99 ± 43 mg
Body Weight (g, mean ± SEM) Day 11 ([7]; Day 11): 18.5 ± 0.6 g
TV (mm^3) Day 11 (mean ± SEM) ([7]; Day 11): 157 ± 18 mm^3
Body Weight (g, mean ± SEM) Day 39 ([7]; Day 39): 19.2 ± 0.7 g
TV (mm^3) Day 39 (mean ± SEM) ([7]; Day 39): 154 ± 57 mm^3
Body Weight Change (%) ([7]; Day 39 vs Day 11): +3.8%

CCc1c2c(nc3ccc(O)cc13)-c1cc3c(c(=O)n1C2)COC(=O)[C@]3(O)CC [SN-38, 7-ethyl-10-hydroxycamptothecin]
Efficacy on some tumor cells relative to CPT-11 [8]: 100-1000 times
